Assays:
Type in all cases: cell-based, human
[1] = tested on: iPSC-derived cardiomyocytes; assay: Spontaneous beating rate of cardiomyocytes; settings: FIG. 29
Experimental: (§1) The BJRiPS cell line was used to generate preliminary data. BJRiPS cells were differentiated into cardiomyocytes according to previously published protocols (6). After the onset of beating (around day 10), cardiomyocytes were treated with vehicle (DMSO) or different concentrations of rapamycin, Torin1, or Torin2 for different time periods. Beating rate was counted manually. Some cells were harvested after 5-7 days of treatment for flow cytometry analysis. Other cells were harvested after 7 days of treatment for qPCR.

[2] = tested on: BJRiPS-derived cardiomyocytes; assay: Example 3 preliminary qPCR of maturation genes in BJRiPS-derived cardiomyocytes; settings: preliminary data, after differentiation
Experimental: as §1

[3] = tested on: iPSC-derived cardiomyocytes; assay: Calcium transients (Fluo-4 AM) analysis with Vala Kinetic Image Cytometer; settings: isoproterenol 1 μM, FIG. 14
Experimental: To perform calcium transients analysis, 50 ul of 10 ug/ml Hoeschst 33258 and 5 μM Fluo-4 AM was added to each well of a 96 well plate and incubated for 10 minutes at 37 degrees. Media was replaced with RPMI without phenol red supplemented with 1:100 Oxyfluor and 10 uM sodium lactate. Isoproterenol (1 μM) was added to the media for isoproterenol experiments. Pacing protocol was 5 seconds delay without pacing followed by 5 seconds pacing at 1 Hz and 5 seconds imaging without pacing. Imaging was performed using the Vala Kinetic Image Cytometer at 30 fps with 33.30 ms exposure at 14.25 intensity. Stimulation pulse was 5 ms with 15V voltage. Data was collected by CyteSeer analysis program.

[4] = tested on: TNNT2+ iPSC-derived cardiomyocytes; assay: Cell cycle analysis by flow cytometry (Hoechst 33342 / pyronin Y) of TNNT2+ cardiomyocytes
Experimental: (§2) To prepare for differentiation, iPSCs were plated at a density between 20,000 to 80,000 cells (depending on the cell line) per well of a 12-well plate at four days prior to onset of differentiation. Cells were differentiated according to the protocol previously described by Lian et al. with some modifications (FIG. 1A) (1). Basal media was changed from StemFlex to RPMI/B27 on day 0 of differentiation. The GSK3 inhibitor, CHIR99021 (6 μM), was added for 48 hours from day 0 to day 2 of differentiation when cells were approximately 70-80% confluent. The Wnt antagonist IWP4 (5 μM) was added from days 2 to 4 of differentiation. Insulin (10 μg/ml) was added to the media starting on day 7 of differentiation, and media was changed every 2-3 days. In general, higher purity (TNNT2+) cardiomyocytes were observed when beating initiated prior to day 10 of differentiation, therefore only batches with onset of beating between days 7-10 of differentiation were included in this study. Beating cardiomyocytes were treated with Torin1 (200 nM, unless otherwise noted) or vehicle (0.02% dimethylsulfoxide (DMSO)) beginning at ˜2 days after onset of beating for 7 days (media changed with fresh Torin1 or DMSO every 2-3 days), unless otherwise noted. After Torin1 treatment, media was switched back to RPMI/B27/insulin and maintained with media change every 2-3 days until endpoint assay. In a few assays, fatty acids were added in the form of chemically defined lipids (Gibco) diluted 1:1000 simultaneous with Torin1 treatment. In some other assays, fetal bovine serum (10% FBS) was added to cells after completion of Torin treatment for 2-4 days.
Cells were dissociated and 5×10^5 to 1×10^6 cells were used per condition. For cell cycle analysis, 5×10^5 cells per condition were fixed in 70% cold ethanol for at least 2 hours to overnight at −20 degrees C. Cells were stained first with AlexaFluor 647-TNNT2 in Permeabilization Buffer (Thermo) then with Hoechst 33342 (2 μg/ml) and pyronin Y (4 μg/ml) for 20 minutes to distinguish between cells in G0, G1, and S-G2-M phases. For other stains, cells were fixed in eBioscience Intracellular Fixation buffer for 30 minutes followed washing twice in eBioscience Permeabilization Buffer and stained with the appropriate primary antibody (Table 2) in eBioscience FACS Staining buffer for 30-60 minutes. If a secondary antibody was used, cells were incubated with the appropriate secondary antibody (Table 2) for 30-60 minutes. The geometric mean fluorescence intensity (MFI) was quantified for TNNT2 and Kir2.1 antibodies. Data were acquired via a BD LSRII instrument and analyzed using FlowJo software.

[5] = tested on: iPSC-derived cardiomyocytes; assay: Western analysis of protein expression in iPSC-derived cardiomyocytes
Experimental: as §2
Cells were lysed with lysis buffer (1% Triton X, 0.35% Na-deoxycholate, 1 mM EDTA, 1% protease inhibitor cocktail (Sigma), 1% phosphatase inhibitor cocktail 2 (Sigma), 1% phosphatase inhibitor cocktail 3 (Sigma), 1 mM phenylmethylsulfonyl fluoride (PMSF)) and total protein was measured with the Pierce BCA Protein Assay Kit. Samples with equal total protein quantities (prepared in Laemmli Sample Buffer (Bio-Rad)) were loaded into a Mini-Protean TGX Precast Gel (Bio-Rad) and electrophoresed for 1 hour at 100 V before transfer to a PVDF membrane using the Trans-Blot Turbo Transfer System (Bio-Rad). The Precision Plus Protein Dual Color Standards molecular weight ladder was used to estimate molecular weight of detected bands (Bio-Rad). Membranes were blocked with 5% milk or bovine serum albumin then incubated with the primary antibody (Table 2) overnight at 4 degrees C. followed by incubation with the horseradish peroxidase-conjugated secondary antibody (Table 2) for 1 hour at room temperature. The Amersham ECL Western Blotting Detection kit was used to detect the protein signal by chemiluminescence, and band densities were quantified using ImageJ software (NIH).

[6] = pifithrin-α 10 μM with Torin1 200 nM, 7 days, FIG. 5B

Nc1ccc(-c2ccc3ncc4ccc(=O)n(-c5cccc(C(F)(F)F)c5)c4c3c2)cn1 [Torin2]
beating rate of cardiomyocytes ([1]; Torin1 10, 50, 200 nM, Torin2 200 nM, from day 11 for 4-5 days): decreased the beating rate
beating rates at 1 week ([1]; dose-dependent, BJRiPS-CMs): significantly decreased beating rates
RNA expression of markers of maturation including TNNI3 and KCNJ2 [2]: increased RNA expression

CC(C)NCC(O)c1ccc(O)c(O)c1 (stereo not shown) [isoproterenol]
calcium peak rise time, peak decay time and FWHM time with isoproterenol stimulation [3]: further decreases

COc1ccc(C2=N[C@@H](c3ccc(Cl)cc3)[C@@H](c3ccc(Cl)cc3)N2C(=O)N2CCNC(=O)C2)c(OC(C)C)c1 [nutlin-3a]
percentage of quiescent (G0) TNNT2+ cardiomyocytes versus control ([4]; nutlin-3a 10 μM 24 hours, Torin1 200 nM 7 days, or both, BJRiPS-CMs, FIG. 6B): increased the percentage of quiescent (G0) TNNT2+ cardiomyocytes
percentage of TNNT2+ cardiomyocytes in G1 phase versus control ([4]; nutlin-3a 10 μM 24 hours, Torin1 200 nM 7 days, or both, FIG. 6B): decreased the percentage of TNNT2+ cardiomyocytes in G1 phase
p53 and TNNI3 protein expression ([5]; nutlin-3a 10 μM 24 hours, independently of Torin1, FIG. 6C): increased p53 and TNNI3 protein expression

Cc1ccc(C(=O)Cn2c3c(sc2=N)CCCC3)cc1 [pifithrin-α]
percentage of cardiomyocytes in the cell cycle (G1, S/G2/M) versus Torin1 alone [4, 6]: increased the percentage of cardiomyocytes in the cell cycle
percentage of quiescent (G0) cardiomyocytes versus Torin1 alone [4, 6]: decreased the percentage of quiescent (G0) cardiomyocytes
Torin1-induced increase in p53 and TNNI3 protein ([5]; pifithrin-α 10 μM with Torin1 200 nM, 7 days, FIGS. 5C-5D): inhibited the Torin1-induced increase in both p53 and TNNI3
